From US12577217B2, “15-PGDH inhibitor” (KYORIN Pharmaceutical Co., Ltd., priority 2019, dated 2026)

Target: T1, recombinant human 15-PGDH (Homo sapiens, UniProt P15428)
T1 construct: purchased R&D Systems
T1 sequence (P15428 1-266): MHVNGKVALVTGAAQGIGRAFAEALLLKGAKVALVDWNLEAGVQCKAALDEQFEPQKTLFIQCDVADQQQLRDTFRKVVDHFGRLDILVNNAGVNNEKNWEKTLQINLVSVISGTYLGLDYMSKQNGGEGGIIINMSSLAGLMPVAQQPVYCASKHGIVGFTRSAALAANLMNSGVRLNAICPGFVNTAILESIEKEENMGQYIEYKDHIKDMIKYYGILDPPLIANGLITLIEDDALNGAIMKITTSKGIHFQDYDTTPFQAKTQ
Assay: 15-PGDH enzyme inhibition test
Format: biochemical
Conditions: 4 nM recombinant human 15-PGDH, 30 μM PGE2, 1 mM NAD+, 60 minutes after starting the reaction; read-out: IC50 Value
Method in brief: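 Fluorescence (excitation 340 nm, emission 440 nm) measured 60 min after adding 1 mM NAD+ and 30 μM PGE2 to 4 nM recombinant human 15-PGDH, which had stood 12 min at room temperature with compound in pH 8.0 Tris-HCl buffer. Concentration-response curves yield IC50, binned into potency categories.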

| SMILES | IC50 |
| --- | --- |
| Cn1nc2cc(N3CCCc4cc(C(=O)N5CCC(F)CC5)cnc43)ccn2c1=O [Example 8-140] | < 10 nM |
| Cn1nc2cc(N3CCCc4cc(C(=O)N5CCCC(C)(F)C5)cnc43)ccn2c1=O (stereo not shown) [Example 8-141] | < 10 nM |
| Cn1nc2cc(N3CCCc4cc(C(=O)N5CCC[C@@H](C(F)F)C5)cnc43)ccn2c1=O [Example 8-142] | < 10 nM |
| Cn1nc2cc(N3CCCc4cc(C(=O)N5CCC[C@H](C(F)F)C5)cnc43)ccn2c1=O [Example 8-143] | < 10 nM |
| CC1CN(C(=O)c2cnc3c(c2)CCCN3c2ccn3c(=O)n(C)nc3c2)CCC1(F)F (stereo not shown) [Example 8-144] | < 10 nM |
| Cn1nc2cc(N3CCCc4cc(C(=O)N5CCC[C@@H](C(F)(F)F)C5)cnc43)ccn2c1=O [Example 8-145] | 10 to 100 nM |
| Cn1nc2cc(N3CCCc4cc(C(=O)N5CCC[C@H](C(F)(F)F)C5)cnc43)ccn2c1=O [Example 8-146] | < 10 nM |
| CCn1nc2cc(N3CCCc4cc(C(=O)N5CCCCCCC5)cnc43)ccn2c1=O [Example 8-150] | < 10 nM |
| CCn1nc2cc(N3CCCc4cc(C(=O)N5CCN(C)CC5)cnc43)ccn2c1=O [Example 8-152] | 10 to 100 nM |
| CCn1nc2cc(N3CCCc4cc(C(=O)N5CCN(C(C)=O)CC5)cnc43)ccn2c1=O [Example 8-153] | > 100 nM |
| CCn1nc2cc(N3CCCc4cc(C(=O)N5CC=CCC5)cnc43)ccn2c1=O [Example 8-154] | < 10 nM |
| CCn1nc2cc(N3CCCc4cc(C(=O)N5CCc6ccccc6C5)cnc43)ccn2c1=O [Example 8-155] | < 10 nM |
| CCn1nc2cc(N3CCCc4cc(C(=O)N5Cc6ccccc6C5)cnc43)ccn2c1=O [Example 8-156] | < 10 nM |
| CCn1nc2cc(N3CCCc4cc(C(=O)N5CCCC(F)(F)C5)cnc43)ccn2c1=O [Example 8-164] | < 10 nM |
| CCn1nc2cc(N3CCCc4cc(C(=O)N5CCCC(C)(F)C5)cnc43)ccn2c1=O (stereo not shown) [Example 8-166] | < 10 nM |
| CCn1nc2cc(N3CCCc4cc(C(=O)N5CCC(F)(F)C(C)C5)cnc43)ccn2c1=O (stereo not shown) [Example 8-169] | < 10 nM |
| Cn1nc2cc(N3CCOc4cc(C(=O)N5CCCCC5(C)C)cnc43)ccn2c1=O [Example 8-172] | > 100 nM |
| Cn1nc2cc(N3CCOc4cc(C(=O)N5CCCC5(C)C)cnc43)ccn2c1=O [Example 8-173] | 10 to 100 nM |
| Cn1nc2cc(N3CCOc4cc(C(=O)NCCCO)cnc43)ccn2c1=O [Example 8-174] | 10 to 100 nM |
| CN(CCCO)C(=O)c1cnc2c(c1)OCCN2c1ccn2c(=O)n(C)nc2c1 [Example 8-175] | 10 to 100 nM |
| Cn1nc2cc(N3CCOc4cc(C(=O)NCCCCO)cnc43)ccn2c1=O [Example 8-176] | 10 to 100 nM |

More lines, now with the values ahead:

| IC50 | SMILES |
| --- | --- |
| < 10 nM | CCn1nc2cc(N3CCCc4cc(C(=O)N5CCC5)cnc43)ccn2c1=O [Example 8-147] |
| < 10 nM | CCn1nc2cc(N3CCCc4cc(C(=O)N5CCCC5)cnc43)ccn2c1=O [Example 8-148] |
| < 10 nM | CCn1nc2cc(N3CCCc4cc(C(=O)N5CCCCCC5)cnc43)ccn2c1=O [Example 8-149] |
| 10 to 100 nM | CCn1nc2cc(N3CCCc4cc(C(=O)N5CCOCC5)cnc43)ccn2c1=O [Example 8-151] |
| 10 to 100 nM | CCn1nc2cc(N3CCCc4cc(C(=O)N5CCCC[C@H]5C)cnc43)ccn2c1=O [Example 8-157] |
| < 10 nM | CCn1nc2cc(N3CCCc4cc(C(=O)N5CCCC[C@@H]5C)cnc43)ccn2c1=O [Example 8-158] |
| < 10 nM | CCn1nc2cc(N3CCCc4cc(C(=O)N5CCC[C@@H](C)C5)cnc43)ccn2c1=O [Example 8-159] |
| < 10 nM | CCn1nc2cc(N3CCCc4cc(C(=O)N5CCC[C@H](C)C5)cnc43)ccn2c1=O [Example 8-160] |
| < 10 nM | CCn1nc2cc(N3CCCc4cc(C(=O)N5CCC(C)CC5)cnc43)ccn2c1=O [Example 8-161] |
| < 10 nM | CCn1nc2cc(N3CCCc4cc(C(=O)N5CCC[C@@H](F)C5)cnc43)ccn2c1=O [Example 8-162] |
| < 10 nM | CCn1nc2cc(N3CCCc4cc(C(=O)N5CCC[C@H](F)C5)cnc43)ccn2c1=O [Example 8-163] |
| < 10 nM | CCn1nc2cc(N3CCCc4cc(C(=O)N5CCC(F)CC5)cnc43)ccn2c1=O [Example 8-165] |
| < 10 nM | CCn1nc2cc(N3CCCc4cc(C(=O)N5CCC[C@@H](C(F)F)C5)cnc43)ccn2c1=O [Example 8-167] |
| < 10 nM | CCn1nc2cc(N3CCCc4cc(C(=O)N5CCC[C@H](C(F)F)C5)cnc43)ccn2c1=O [Example 8-168] |
| 10 to 100 nM | CCn1nc2cc(N3CCCc4cc(C(=O)N5CCC[C@@H](C(F)(F)F)C5)cnc43)ccn2c1=O [Example 8-170] |
| < 10 nM | CCn1nc2cc(N3CCCc4cc(C(=O)N5CCC[C@H](C(F)(F)F)C5)cnc43)ccn2c1=O [Example 8-171] |
